± gives the uncertainty stated by the source.
Test: xn = mol fraction of the nth substance listed

CCCC[n+]1ccn(C)c1.O=S(=O)([N-]S(=O)(=O)C(F)(F)F)C(F)(F)F + Nc1ccccc1
100 kPa, x2 = 0
Details | viscosity [mPa·s]
288.15 K | 78.4 ± 3.5
293.15 K | 61.5 ± 2.7
298.15 K | 49.1 ± 2.2
303.15 K | 39.9 ± 1.8
308.15 K | 33.2 ± 1.5
313.15 K | 27.7 ± 1.2
318.15 K | 23.5 ± 1
323.15 K | 20.13 ± 0.89
328.15 K | 17.39 ± 0.77
333.15 K | 15.2 ± 0.67

CC(O)C(=O)[O-].CCOCCn1cc[n+](C)c1 + O
100 kPa
Details | electrical conductivity [S/m] | viscosity [mPa·s]
293.15 K, x1 = 0.8093 | 0.292 ± 0.02 | 70.03 ± 0.95
293.15 K, x1 = 0.8365 | 0.261 ± 0.02 | 74.7 ± 1.1
293.15 K, x1 = 0.9017 | 0.2 ± 0.02 | 85.7 ± 1.7
298.15 K, x1 = 0.8702 | 0.276 ± 0.02 | 60.47 ± 0.58
303.15 K, x1 = 0.938 | 0.274 ± 0.02 | 52.44 ± 0.39
308.15 K, x1 = 0.8093 | 0.498 ± 0.02 | 31.76 ± 0.35
308.15 K, x1 = 0.8365 | 0.464 ± 0.02 | 33.56 ± 0.38
308.15 K, x1 = 0.8702 | 0.43 ± 0.02 | 35.75 ± 0.4
318.15 K, x1 = 0.9017 | 0.617 ± 0.02 | 22.56 ± 0.3

CCCCCC[N+](CC)(CC)CC.O=S(=O)([N-]S(=O)(=O)C(F)(F)F)C(F)(F)F + O
101 kPa, x2 = 0.1627
Details | viscosity [mPa·s]
293.25 K | 79.3 ± 1.7
308.05 K | 44.04 ± 0.92

CCCCCC[n+]1ccn(C)c1.F[P-](F)(F)(F)(F)F + O
101 kPa, x2 = 0.22
Details | electrical conductivity [S/m] | viscosity [mPa·s]
293.15 K | – | 269 ± 36
295.15 K | 0.1 ± 0.02 | –

CCCC[n+]1ccn(C)c1.F[P-](F)(F)(F)(F)F + O
Details | electrical conductivity [S/m] | viscosity [mPa·s]
293.15 K, 100 kPa, x1 = 0.0001838 | – | 1.011 ± 0.041
293.15 K, 100 kPa, x1 = 0.0005385 | – | 1.025 ± 0.042
293.15 K, 100 kPa, x1 = 0.0008966 | – | 1.038 ± 0.043
293.15 K, 100 kPa, x1 = 0.001262 | – | 1.041 ± 0.043
298.15 K, 100 kPa, x1 = 0.0001838 | – | 0.905 ± 0.037
298.15 K, 100 kPa, x1 = 0.0005385 | – | 0.916 ± 0.038
298.15 K, 100 kPa, x1 = 0.0008966 | – | 0.922 ± 0.038
298.15 K, 100 kPa, x1 = 0.001262 | – | 0.932 ± 0.038
298.15 K, 101 kPa, x1 = 0.00129 | – | 0.929 ± 0.034
298.15 K, 101 kPa, x2 = 0 | 0.157 ± 0.019 | 260 ± 180
298.15 K, 101 kPa, x2 = 0.0518 | 0.197 ± 0.024 | 200 ± 110
298.15 K, 101 kPa, x2 = 0.0985 | 0.235 ± 0.028 | 154 ± 71
298.15 K, 101 kPa, x2 = 0.1409 | 0.281 ± 0.034 | 127 ± 49
298.15 K, 101 kPa, x2 = 0.1794 | 0.334 ± 0.04 | 109 ± 35
298.15 K, 101 kPa, x2 = 0.2146 | 0.383 ± 0.046 | 92 ± 24
303.15 K, 100 kPa, x1 = 0.0001838 | – | 0.821 ± 0.034
303.15 K, 100 kPa, x1 = 0.0005385 | – | 0.826 ± 0.034
303.15 K, 100 kPa, x1 = 0.001262 | – | 0.843 ± 0.035
308.15 K, 100 kPa, x1 = 0.0001838 | – | 0.742 ± 0.03
308.15 K, 100 kPa, x1 = 0.0005385 | – | 0.744 ± 0.031
308.15 K, 100 kPa, x1 = 0.0008966 | – | 0.75 ± 0.031
308.15 K, 100 kPa, x1 = 0.001262 | – | 0.761 ± 0.031
313.15 K, 100 kPa, x1 = 0.0001838 | – | 0.661 ± 0.027
313.15 K, 100 kPa, x1 = 0.0005385 | – | 0.674 ± 0.028
313.15 K, 100 kPa, x1 = 0.0008966 | – | 0.677 ± 0.028
313.15 K, 100 kPa, x1 = 0.001262 | – | 0.683 ± 0.028

101 kPa, frequency 6e-05 MHz
Details | electrical conductivity [S/m]
293.2 K, x2 = 0.1 | 0.199 ± 0.002
298.2 K, x2 = 0.05 | 0.231 ± 0.002
298.2 K, x2 = 0.15 | 0.361 ± 0.004
308.2 K, x2 = 0.1 | 0.401 ± 0.004
308.2 K, x2 = 0.2 | 0.546 ± 0.006
313.2 K, x2 = 0.15 | 0.561 ± 0.006
318.2 K, x2 = 0.05 | 0.491 ± 0.005
318.2 K, x2 = 0.2 | 0.775 ± 0.008
323.2 K, x2 = 0.1 | 0.678 ± 0.007
333.2 K, x2 = 0.2 | 1.06 ± 0.011
343.2 K, x2 = 0.15 | 1.06 ± 0.011
353.2 K, x2 = 0.15 | 1.405 ± 0.014
353.2 K, x2 = 0.2 | 1.621 ± 0.016

CC[n+]1ccn(C)c1.O=S(=O)([O-])O + O
viscosity [mPa·s]
Details | 293.15 K | 298.15 K | 303.15 K | 308.15 K | 313.15 K | 318.15 K
100 kPa, x1 = 0.0005421 | 1.046 ± 0.033 | 0.929 ± 0.032 | 0.824 ± 0.031 | 0.75 ± 0.031 | 0.678 ± 0.031 | –
100 kPa, x1 = 0.0009002 | 1.05 ± 0.1 | 0.94 ± 0.1 | 0.84 ± 0.1 | 0.76 ± 0.1 | 0.69 ± 0.1 | 0.65 ± 0.1
100 kPa, x1 = 0.0009056 | 1.068 ± 0.033 | 0.949 ± 0.032 | 0.843 ± 0.031 | 0.759 ± 0.031 | 0.684 ± 0.031 | –
100 kPa, x1 = 0.001263 | 1.073 ± 0.032 | 0.966 ± 0.032 | 0.866 ± 0.032 | 0.78 ± 0.031 | 0.697 ± 0.031 | –
100 kPa, x1 = 0.001799 | 1.07 ± 0.1 | 0.95 ± 0.1 | 0.85 ± 0.1 | 0.77 ± 0.1 | 0.7 ± 0.1 | 0.64 ± 0.1
100 kPa, x1 = 0.002696 | 1.08 ± 0.1 | 0.96 ± 0.1 | 0.86 ± 0.1 | 0.78 ± 0.1 | 0.71 ± 0.1 | 0.64 ± 0.1
101 kPa, x1 = 0.0006645 | 1.023 ± 0.013 | 0.93 ± 0.012 | 0.8234 ± 0.01 | 0.7498 ± 0.0093 | 0.6736 ± 0.0083 | –
101 kPa, x1 = 0.0007293 | 1.036 ± 0.013 | 0.943 ± 0.012 | 0.8247 ± 0.01 | 0.7493 ± 0.0093 | 0.6893 ± 0.0085 | –
101 kPa, x1 = 0.0009254 | 1.064 ± 0.013 | 0.943 ± 0.012 | 0.8439 ± 0.01 | 0.7628 ± 0.0094 | 0.6829 ± 0.0084 | –

COCCCn1cc[n+](C)c1.O=S(=O)([N-]S(=O)(=O)C(F)(F)F)C(F)(F)F + O
Details | viscosity [mPa·s]
283 K, 101 kPa, x1 = 0.8316 | 82.6 ± 2

Cn1cc[nH+]c1.[Cl-] + O
viscosity [mPa·s], 100 kPa
Details | x1 = 9.081e-05 | x1 = 0.000182 | x1 = 0.0003637 | x1 = 0.0005491 | x1 = 0.0007277 | x1 = 0.0008883 | x1 = 0.001091 | x1 = 0.001364 | x1 = 0.00178
278.15 K | 1.521 ± 0.011 | 1.523 ± 0.011 | 1.525 ± 0.011 | 1.528 ± 0.011 | 1.53 ± 0.011 | 1.532 ± 0.011 | 1.535 ± 0.011 | 1.539 ± 0.011 | 1.543 ± 0.012
283.15 K | 1.308 ± 0.01 | 1.309 ± 0.01 | 1.311 ± 0.01 | 1.313 ± 0.01 | 1.314 ± 0.01 | 1.316 ± 0.01 | 1.319 ± 0.01 | 1.32 ± 0.01 | 1.323 ± 0.01
288.15 K | 1.139 ± 0.009 | 1.141 ± 0.009 | 1.142 ± 0.009 | 1.144 ± 0.009 | 1.145 ± 0.009 | 1.146 ± 0.009 | 1.149 ± 0.009 | 1.151 ± 0.009 | 1.153 ± 0.009
293.15 K | 1.003 ± 0.008 | 1.004 ± 0.008 | 1.005 ± 0.008 | 1.007 ± 0.008 | 1.009 ± 0.008 | 1.01 ± 0.008 | 1.013 ± 0.008 | 1.014 ± 0.008 | 1.018 ± 0.008
298.15 K | 0.89 ± 0.007 | 0.891 ± 0.007 | 0.892 ± 0.007 | 0.894 ± 0.007 | 0.896 ± 0.007 | 0.897 ± 0.007 | 0.899 ± 0.007 | 0.901 ± 0.007 | 0.904 ± 0.007
303.15 K | 0.798 ± 0.006 | 0.799 ± 0.006 | 0.8 ± 0.006 | 0.801 ± 0.006 | 0.803 ± 0.006 | 0.804 ± 0.006 | 0.805 ± 0.006 | 0.806 ± 0.006 | 0.808 ± 0.006
308.15 K | 0.719 ± 0.006 | 0.72 ± 0.006 | 0.721 ± 0.006 | 0.722 ± 0.006 | 0.723 ± 0.006 | 0.724 ± 0.006 | 0.725 ± 0.006 | 0.727 ± 0.006 | 0.728 ± 0.006
313.15 K | 0.652 ± 0.005 | 0.653 ± 0.005 | 0.654 ± 0.005 | 0.655 ± 0.005 | 0.656 ± 0.005 | 0.657 ± 0.005 | 0.658 ± 0.005 | 0.659 ± 0.005 | 0.662 ± 0.005

Reference: the CheMixHub ionic liquid set
